Results reported in patent publication US20150284381A1, “AMINO-PYRIDINE-CONTAINING SPLEEN TYROSINE KINASE (SYK) INHIBITORS” (MERCK SHARP & DOHME CORP., priority 2012, published 2015).

Biological target: T1, recombinant human GST-Syk (Homo sapiens, UniProt P43405)
T1 construct: purchased Carna Biosciences 08-176
Experiment: Homogeneous Time-Resolved Fluorescence (HTRF) assay for the recombinant human Syk enzyme
Format: biochemical
Conditions: recombinant human GST-Syk 5 pM, ATP 25 μM, 45 min at rt, read-out: rhSyk
Method: Homogeneous Time-Resolved Fluorescence (HTRF) Assay for the Recombinant Human Syk Enzyme
A recombinant GST-hSyk fusion protein was used to measure potency of compounds to inhibit human Syk activity. The recombinant human GST-Syk (Carna Biosciences #08-176) (5 pM nominal concentration) was incubated with various concentrations of the inhibitor diluted in DMSO (0.1% final concentration) for 10 minutes at rt in 15 mM Tris-HCl (pH 7.5), 0.01% tween 20, 2 mM DTT in 384 well plate format. To initiate the reaction the biotinylated substrate peptide (250 nM final concentration) that contains the phosphorylation site for Syk was added with magnesium (5 mM final concentration) and ATP (25 μM final concentration). Final volume of the reaction was 10 μL. Phosphorylation of the peptide was allowed to proceed for 45′ at rt. To quench the reaction and detect the phosphorylated product, 2 nM of a Europium-anti-phosphotyrosine antibody (Perkin Elmer #AD0161) and 70 nM SA-APC (Perkin-Elmer #CR130-100) were added together in 15 mM Tris pH 7.5, 40 mM EDTA, 0.01% tween 20. Final volume of the quenching solution was 10 μL. The resulting HTRF signal was measured after 30 minutes on a EnVision (Perkin-Elmer) reader using a time-resolved fluorescence protocol. IC50 was determined following 10-dose titration (10 μM to 0.508 nM) and four parameter logistic curve fitting using an assay data analyzer.

Row | Structure (SMILES) | IC50
1 | CCC(CC)c1ccnc(Nc2cc(C)cc(-c3cnc([C@@]4(O)CCCc5cc(C(=O)O)ccc54)s3)n2)c1 [Example 3C, (5R)-5-[5-(6-{[4-(1-ethylpropyl)pyridin-2-yl]amino}-4-methylpyridin-2-yl)-1,3-thiazol-2-yl]-5-hydroxy-5,6,7,8-tetrahydronaphthalene-2-carboxylic acid] | 0.5 nM
2 | Cc1cc(Nc2cc(-c3cn[nH]c3)ccn2)nc(-c2cnc(C3(O)CCCc4cc(C(=O)N(C)C)ccc43)s2)c1 (single isomer, unassigned) [Example 4C-2, 5-Hydroxy-N,N-dimethyl-5-[5-(4-methyl-6-{[4-(1H-pyrazol-4-yl)pyridin-2-yl]amino}pyridin-2-yl)-1,3-thiazol-2-yl]-5,6,7,8-tetrahydronaphthalene-2-carboxamide] | 757 nM
3 | Cc1cc(Nc2cc(C3CC3)ccn2)nc(-c2cnc(C3(O)CCCc4cc(C(=O)O)c(F)cc43)s2)c1 (single isomer, unassigned) [Example 1G, (R or S)-5-(5-{6-[(4-cyclopropylpyridin-2-yl)amino]-4-methylpyridin-2-yl}-1,3-thiazol-2-yl)-3-fluoro-5-hydroxy-5,6,7,8-tetrahydronaphthalene-2-carboxylic acid] | 4.3 nM
4 | Cc1cc(Nc2cc(C(F)(F)F)ccn2)nc(-c2cnc(C3(O)CCCc4cc(C(=O)O)c(Cl)cc43)s2)c1 (single isomer, unassigned) [Example 1E, (R or S)-3-chloro-5-hydroxy-5-[5-(4-methyl-6-{[4-(trifluoromethyl)pyridin-2-yl]amino}pyridin-2-yl)-1,3-thiazol-2-yl]-5,6,7,8-tetrahydronaphthalene-2-carboxylic acid] | 1.16 nM
5 | Cc1cc(Nc2cc(-c3c[nH]nn3)ccn2)nc(-c2cnc([C@@]3(O)CCCc4cc(C(=O)N(C)C)ccc43)s2)c1 [Example 6A, (5R)-5-hydroxy-N,N-dimethyl-5-[5-(4-methyl-6-{[4-(1H-1,2,3-triazol-4-yl)pyridin-2-yl]amino}pyridin-2-yl)-1,3-thiazol-2-yl]-5,6,7,8-tetrahydronaphthalene-2-carboxamide] | 0.73 nM
6 | Cc1cc(Nc2cc(C(F)(F)F)ccn2)nc(-c2cnc(C3(O)CCc4cc(C(=O)O)c(F)cc43)s2)c1 (single isomer, unassigned) [Example 1C, (R or S)-6-fluoro-1-hydroxy-1-[5-(4-methyl-6-{[4-(trifluoromethyl)pyridin-2-yl]amino}pyridin-2-yl)-1,3-thiazol-2-yl]-2,3-dihydro-1H-indene-5-carboxylic acid] | 0.39 nM
7 | Cc1cc(Nc2cc(C3CC3)ccn2)nc(-c2cnc(C3(O)CCCc4cc(C(=O)O)c(F)cc43)s2)c1 (single isomer, unassigned) [Example 1H, (R or S)-5-(5-{6-[(4-cyclopropylpyridin-2-yl)amino]-4-methylpyridin-2-yl}-1,3-thiazol-2-yl)-3-fluoro-5-hydroxy-5,6,7,8-tetrahydronaphthalene-2-carboxylic acid] | 0.002 nM
8 | COc1ccnc(Nc2cc(C)cc(-c3cnc([C@@]4(O)CCc5cc(C(=O)O)ccc54)s3)n2)c1 [Example 2G, (1R)-1-hydroxy-1-(5-{6-[(4-methoxypyridin-2-yl)amino]-4-methylpyridin-2-yl}-1,3-thiazol-2-yl)-2,3-dihydro-1H-indene-5-carboxylic acid] | 0.16 nM
9 | CCCc1ccnc(Nc2cc(C)cc(-c3cnc([C@@]4(O)CCc5cc(C(=O)O)ccc54)s3)n2)c1 [Example 3D, (1R)-1-hydroxy-1-(5-{4-methyl-6-[(4-propylpyridin-2-yl)amino]pyridin-2-yl}-1,3-thiazol-2-yl)-2,3-dihydro-1H-indene-5-carboxylic acid] | 0.08 nM

Further compounds by falling IC50, results first:

Row | IC50 | Structure (SMILES)
10 | 4.61 nM | Cc1cc(Nc2cc(C(F)(F)F)ccn2)nc(-c2cnc([C@@]3(O)CCCc4c3ccc(C(=O)O)c4O)s2)c1 (single isomer, unassigned) [Example 7A, 1,5-Dihydroxy-5-[5-(4-methyl-6-{[4-(trifluoromethyl)pyridin-2-yl]amino}pyridin-2-yl)-1,3-thiazol-2-yl]-5,6,7,8-tetrahydronaphthalene-2-carboxylic acid]
11 | 2.19 nM | Cc1cc(Nc2cc(C(F)(F)F)ccn2)nc(-c2cnc(C3(O)CCCc4c3ccc(C(=O)O)c4F)s2)c1 (single isomer, unassigned) [Example 1i, (R or S)-1-fluoro-5-hydroxy-5-[5-(4-methyl-6-{[4-(trifluoromethyl)pyridin-2-yl]amino}pyridin-2-yl)-1,3-thiazol-2-yl]-5,6,7,8-tetrahydronaphthalene-2-carboxylic acid]
12 | 2 nM | Cc1cc(Nc2cc(C(C)F)ccn2)nc(-c2cnc(C3(O)CCCc4cc(C(=O)O)ccc43)s2)c1 (single isomer, unassigned) [Example 8C, 5-(5-(6-((4-(1-Fluoroethyl)pyridin-2-yl)amino)-4-methylpyridin-2-yl)thiazol-2-yl)-5-hydroxy-5,6,7,8-tetrahydronaphthalene-2-carboxylic acid]
13 | 2 nM | Cc1cc(Nc2cc(C(C)F)ccn2)nc(-c2cnc(C3(O)CCCc4cc(C(=O)O)ccc43)s2)c1 (single isomer, unassigned) [Example 8A, 5-(5-(6-((4-(1-Fluoroethyl)pyridin-2-yl)amino)-4-methylpyridin-2-yl)thiazol-2-yl)-5-hydroxy-5,6,7,8-tetrahydronaphthalene-2-carboxylic acid]
14 | 1.8 nM | Cc1cc(Nc2cc(C3CCCC(C)C3)ccn2)nc(-c2cnc([C@@]3(O)CCCc4cc(C(=O)O)ccc43)s2)c1 (stereo partly drawn) [Example 3A, (5R)-5-hydroxy-5-[5-(4-methyl-6-{[4-(3-methylcyclohexyl)pyridin-2-yl]amino}pyridin-2-yl)-1,3-thiazol-2-yl]-5,6,7,8-tetrahydronaphthalene-2-carboxylic acid]
15 | 1.51 nM | Cc1cc(Nc2cc(C(F)(F)F)ccn2)nc(-c2cnc(C3(O)CCCc4cc(C(=O)O)c(Br)cc43)s2)c1 (single isomer, unassigned) [Example 1A, 3-Bromo-5-hydroxy-5-[5-(4-methyl-6-{[4-(trifluoromethyl)pyridin-2-yl]amino}pyridin-2-yl)-1,3-thiazol-2-yl]-5,6,7,8-tetrahydronaphthalene-2-carboxylic acid]
16 | 1.04 nM | Cc1cc(Nc2cc(-c3cn[nH]c3)ccn2)nc(-c2cnc(C3(O)CCCc4cc(C(=O)N(C)C)ccc43)s2)c1 (single isomer, unassigned) [Example 4C-1, 5-Hydroxy-N,N-dimethyl-5-[5-(4-methyl-6-{[4-(1H-pyrazol-4-yl)pyridin-2-yl]amino}pyridin-2-yl)-1,3-thiazol-2-yl]-5,6,7,8-tetrahydronaphthalene-2-carboxamide]
17 | 0.24 nM | Cc1cc(Nc2cc(C(F)(F)F)ccn2)nc(-c2cnc([C@@]3(O)CCCc4c3ccc(C(=O)O)c4O)s2)c1 (single isomer, unassigned) [Example 7B, 1,5-Dihydroxy-5-[5-(4-methyl-6-{[4-(trifluoromethyl)pyridin-2-yl]amino}pyridin-2-yl)-1,3-thiazol-2-yl]-5,6,7,8-tetrahydronaphthalene-2-carboxylic acid]
18 | 0.13 nM | Cc1cc(Nc2cc(C(F)F)ccn2)nc(-c2cnc([C@@]3(O)CCc4cc(C(=O)O)ccc43)s2)c1 [Example 2i, (1R)-1-[5-(6-{[4-(difluoromethyl)pyridin-2-yl]amino}-4-methylpyridin-2-yl)-1,3-thiazol-2-yl]-1-hydroxy-2,3-dihydro-1H-indene-5-carboxylic acid]
19 | 0.1 nM | Cc1cc(Nc2cc(C(C)F)ccn2)nc(-c2cnc(C3(O)CCCc4cc(C(=O)O)ccc43)s2)c1 (single isomer, unassigned) [Example 8B, 5-(5-(6-((4-(1-Fluoroethyl)pyridin-2-yl)amino)-4-methylpyridin-2-yl)thiazol-2-yl)-5-hydroxy-5,6,7,8-tetrahydronaphthalene-2-carboxylic acid]
20 | 0.1 nM | Cc1cc(Nc2cc(C(C)F)ccn2)nc(-c2cnc(C3(O)CCCc4cc(C(=O)O)ccc43)s2)c1 (single isomer, unassigned) [Example 8D, 5-(5-(6-((4-(1-Fluoroethyl)pyridin-2-yl)amino)-4-methylpyridin-2-yl)thiazol-2-yl)-5-hydroxy-5,6,7,8-tetrahydronaphthalene-2-carboxylic acid]
21 | 0.05 nM | Cc1cc(Nc2cc(C(C)F)ccn2)nc(-c2cnc([C@@]3(O)CCc4cc(C(=O)O)ccc43)s2)c1 (single isomer, unassigned) [Example 2K, (1R)-1-[5-(6-{[4-((R or S)-1-fluoroethyl)pyridin-2-yl]amino}-4-methylpyridin-2-yl)-1,3-thiazol-2-yl]-1-hydroxy-2,3-dihydro-1H-indene-5-carboxylic acid]
22 | 0.04 nM | Cc1cc(Nc2cc(C(C)F)ccn2)nc(-c2cnc([C@@]3(O)CCc4cc(C(=O)O)ccc43)s2)c1 (single isomer, unassigned) [Example 2J, (1R)-1-[5-(6-{[4-((R or S)-1-fluoroethyl)pyridin-2-yl]amino}-4-methylpyridin-2-yl)-1,3-thiazol-2-yl]-1-hydroxy-2,3-dihydro-1H-indene-5-carboxylic acid]
